Here are results for 6 molecules from patent publication US20220339259A1, “ORALLY DELIVERED THERAPEUTICAL COMPOSITION AND USE THEREOF” (priority 2019, published 2022).

The nature of series [1]: Plasma ibrutinib level by HPLC after oral gavage. Also on record: species or system mice. The note with it: mouse, in vivo. Here is the method: FIG. 16A-FIG. 16B. Examples of representative HPLC data. Plasma ibrutinib levels were measured by HPLC 3 hours after mice were treated by oral gavage with an equal amount of free ibrutinib and LCFA-ibrutinib. The ibrutinib peaks are indicated with arrows. There was a 3-fold increase in plasma ibrutinib level in mice treated with LCFA-ibrutinib (B) compared with those treated with free ibrutinib (A) based on the measurements of the area under the curve (AUC).
LCFA-conjugated ibrutinib was synthesized and characterized (FIG. 15A-FIG. 15C). To compare drug uptake between free ibrutinib and LCFA-ibrutinib, mice were treated with an equal amount of free ibrutinib or LCFA-ibrutinib. Blood samples were collected at different time points, and analyzed for ibrutinib content by HPLC. Area under the curve (AUC) of ibrutinib was calculated to evaluate plasma drug concentration (FIG. 16A-FIG. 16B).

The conditions of series [2]: cited from earlier work.
A short description of series [3]: Intraperitoneal glucose tolerance test, Ex4-Lys^27-LCFA in acid-neutralized mice. Format: in vivo, male C57BL/6 mice. As to the method:
FIG. 11. […] Each mouse was treated orally with 100 μL 1M NaHCO3 to neutralize acid in the gastric fluid. […] The mice were then challenged with intraperitoneal injection of 2 g/kg glucose 1 hour after treatment.
(§1) Intraperitoneal glucose tolerance test (GTT) was performed in male C57BL/6 mice. Briefly, 6 to 12-week-old male C57BL/6 mice were fasted overnight and treated by oral gavage with 100 μL 1M NaHCO3 to neutralize acid in the gastric fluid. One minute later, the mice were treated with PBS, 100 μg Ex4, or 100 μg Ex4-Lys^27-LCFA by oral gavage, respectively. All mice were then treated with 2 g/kg glucose by intraperitoneal injection 1 hour later. Blood samples were collected to measure blood glucose levels. Area under the curve (AUC) of blood glucose was calculated to evaluate hypoglycemic response to each treatment (FIG. 11).

A further series has as its system Caco-2 cells. Description: Uptake of fatty acid-Ex4 conjugate by Caco-2 cells. The series is classed as cell-based, human. To be noted: Alexa594-labeled conjugates; incubation for one hour. Here is the method:
FIG. 10. Examples of representative results of Caco-2 cell uptake. The fatty acid-conjugated Ex4 molecules were incubated with Alexa594 (fluorescent dye)-labeled Ex4-Lys^27-LCFA having 12, 16 and 18 carbon fatty acids (C12, C16, C18, respectively) and Ex4-Lys^27-SCFA (short chain fatty acid having 8 carbons, shown as C8) and were taken up by the cells. Levels of uptake were determined based on fluorescent intensity (MFI) inside the cells.
Coco-2 cells were seeded in cell culture plates. Cells were incubated with either fluorescently labeled Ex4-Lys^27-SCFA (C8) or one of the fluorescently labeled Ex4-Lys^27-LCFA having a C12, C16 and C18 LCFA. After incubation for one hour, cells were washed with PBS to remove fatty acid-conjugated Ex4. A plate reader was applied to measure fluorescent intensity in each well in the cell culture plate, and the results were compared (FIG. 10).

Series [4] can be described thus: Intraperitoneal glucose tolerance test, GLP-1-Lys^26-LCFA in acid-neutralized mice. The series is classed as in vivo, male C57BL/6 mice. Here is the method: FIG. 12. Additional examples of representative glucose tolerance assay results. Glucose tolerance assays were performed after treatment with free GLP-1 analogue or GLP-1-Lys^26-LCFA. Each mouse was treated orally with 100 μL 1M NaHCO3 to neutralize acid in the gastric fluid as described before. After 1 minute, the mice were treated p.o. with PBS, 100 μg free GLP-1 analogue (GLP-1), or 100 μg GLP-1-Lys^26-LCFA. The mice were then challenged with intraperitoneal injection of 2 g/kg glucose 1 hour after treatment.
as §1, with “GTT” for “glucose tolerance test (GTT)”, “treated” for “treated by oral gavage”, “GLP-1 analogue,” for “Ex4,”, “GLP-1-Lys^26-LCFA” for “Ex4-Lys^27-LCFA”, “12).” for “11).”

The test system of a further series is c-Myc. Description: Knockdown of c-Myc expression in Caco-2 cells (Western blot). The series is classed as cell-based, human. To be noted: 200 nM, without transfection reagent, 3 days. Here is the method:
FIG. 18. Examples of representative measurement data of protein expression. Western blot was performed to measure the suppression of c-Myc expression by LCFA-conjugated miR-34a mimic 3 days after Caco-2 cells were treated. c-Myc is a known target of miR-34a. Its expression level was detected both after a short exposure (short expo) and a relatively long exposure (long expo).
Caco-2 cells were seeded in 6-well cell culture plates, and treated (without any transfection reagent) with 200 nM free scramble siRNA (Scr), 200 nM free miR-34a mimic (miR-34a), or 200 nM LCFA-conjugated miR-34a (FA-miR-34a), respectively. Cells were harvested 3 days later, and lysed to prepare protein samples. Equal amount of protein samples was loaded in 10% SDS-polyacrylamide gels for Western blot analysis. The c-Myc protein was detected with an anti-c-Myc antibody. c-Myc expression levels were detected after both a short-time exposure (short expo) and relatively long-time exposure (long expo). β-Actin was served as an expression control (FIG. 18).

For series [5] the following is noted: in human; co-formulated with SNAC; cited from earlier work.
[6] abbreviates: 100 μg p.o. after 100 μL 1M NaHCO3, 2 g/kg glucose i.p. 1 hour after treatment, 15 minutes after challenge.
The mark [7] stands for this setting: 100 μg p.o. after NaHCO3, 2 g/kg glucose i.p. 1 hour later.

Like-named read-outs stand apart in the source and are kept apart here.

For the molecule `C=CC(=O)N1CCCC(n2nc(-c3ccc(Oc4ccccc4)cc3)c3c(NC(=O)CCCCCCCCCCCCCCCCC(=O)O)ncnc32)C1` (centres unmarked) [LCFA-ibrutinib], the “Area under the curve (AUC) of ibrutinib in plasma (HPLC)” value in series [1] was determined as 6.428. In series [1] (3 h), the “increase in plasma ibrutinib level compared with free ibrutinib (based on AUC)” value is given as 3 fold.

For `C=CC(=O)N1CCC[C@@H](n2nc(-c3ccc(Oc4ccccc4)cc3)c3c(N)ncnc32)C1` [ibrutinib], the figures for the oral bioavailability in series [2] (fasting state) and in series [2] (fed state) were 3.9% and 8.4%, respectively.

As for “Ex4-Lys^27-LCFA: conjugated long-chain fatty acid and exendin-4 through lysine residue 27; C12, C16 and C18 dicarboxylic acids used”, in series [3] (setting [6]), the “blood glucose level after glucose challenge” value was “mild increase in blood glucose level”. The “controlling blood glucose level after gavage in the acid-neutralized GI track” value in series [3] (setting [7]) is on record as “effective in controlling blood glucose level”. Besides, in the series with Caco-2 cells, the “levels of uptake by Caco-2 cells (fluorescent intensity, MFI)” value is “high uptake”.

As to “free GLP-1: GLP-1 analogue with AIB at position 8 (SEQ ID. 2), unconjugated”, the “blood glucose level after glucose challenge” value in series [4] (setting [6]) is reported as “high blood glucose levels”. For the same molecule, in series [4] (setting [7]), the “controlling blood glucose level after gavage in the acid-neutralized GI track” value is recorded as “not”.

For “miR-34a: free microRNA-34a mimic duplex (SEQ ID. 3 and 4), unconjugated control (chain 1 UGGCAGUGUCUUAGCUGGUUGUTT; chain 2 ACAACCAGCUAAGACACUGCCATT; sense strand nucleotides 20 and 21 methylated, type of methylation not given here)”, the “suppression of c-Myc expression” value in the series with c-Myc is recorded as “not”.

On to semaglutide, for which the oral bioavailability result in series [5] is given as “barely detectable”.
